Counter-ions that a name gives are not always drawn. Like-named read-outs stand apart in the source and are kept apart here.
What was measured:
Angiotensin Receptor [1] = assay: Screening Potential Angiotensin Receptor Antagonists in Salt-Depleted Normotensive Rats (blood pressure after oral dosing); assay type: in vivo, Sprague-Dawley rats; conditions: for Antihypertensive Activity (p.o.): active @ dose: oral, salt-depleted normotensive rats, active = MAP decrease of 10 or more mmHg vs concurrent control
Excerpt: Test Procedure for Screening Potenital Angiotensin Receptor Antagonists in Salt-Depleted Normotensive Rats
Purpose: This test is designed to detect hypotensive effects of a compound after oral dosing in normotensive animals made renin-dependent by salt depletion. [Wong, P. C., Price, W. A., Chiu, A. T., Duncia, J. V., Carini, D. J., Wexler, R. R., Johnson, A. L., and Timmermans, P. B. M. W. M.: Nonpeptide angiotensin II receptor antagonists. VIII. […] J. Pharmacol. Exp. Ther., 252,726 (1990)]
Solution Preparation: Oral 50 mg/kg furosemide doses are prepared from 10 mg/mL solutions of the intravenous pharmaceutical preparation (Lasix injection, Hoechst-Roussel Pharmaceutical). Test compound is uniformly suspended in 1% methylcellulose.
(§1) Method: Male 350-450 g Sprague-Dawley rats are implanted with teflon microcannulae via the middle caudal artery under 20 mg/kg intravenous brevital anesthesia and permitted a 4-7 day surgical recovery period. Throughout recovery and testing animals are individually housed unrestrained in standard rat metabolism cages and receive continuous 0.5 mL/hour intra-arterial 0.25 N saline infusion through a spring-shielded swivelling tether connected to an infusion/blood pressure recording system to maintain arterial cannula patency. Animals are maintained on Low Sodium (0.03%) Pruina Rat Chow #5881 throughout the study. After the recovery period animals are given oral 50 mg/kg furosemide (Lasix, Hoechst-Roussel Pharmaceutical) doses on two consecutive days to produce marked diuresis and plasma volume depletion that makes maintenance of normal blood pressure highly dependent on function of the renin-angiotensin-aldosteronesystem. Three hours after the second furosemide dose, rats are given test compound uniformly suspended in 1% methylcellulose (n=3/dose level) or 1 mL 1% methylcellulose vehicle (n=3) orally by gavage and blood pressure is continuously recorded for 24 h using a Buxco computerized data recording system. Compound-induced changes in blood pressure are compared to concurrent vehicle control blood pressures in order to detect drug effect.
Interpretation: Prior to salt depletion, normotensive rats typically show a plasma renin activity (PRA), measured by Radioimmuno Assay (RIA) of Angiotensin I (as ng Angiotensin I/mL plasma/hour) and yields a RIA of 0.7. After the salt-depletion protocol PRA values taken 3 hour after the furosemide dose have risen to about 7.4. […] PRA is increased by this DuP-753 treatment to about 41.4.
Compounds that decrease blood pressure 10 or more mmHg (MAP) compared to concurrent control after oral dosing are considered active in this test. Maximum possible response is about-35 mmHg. See results in Table 2.

[2] = tested on: plasma renin activity (PRA); assay: Plasma renin activity by Radioimmuno Assay of Angiotensin I in salt-depleted rats; assay type: in vivo, Sprague-Dawley rats; conditions: salt-depleted animals; about 7.4 after salt depletion before treatment
Procedure: as §1, with “After the recovery period animals are given oral 50 mg/kg furosemide (Lasix, Hoechst-Roussel Pharmaceutical) doses on two consecutive days to produce marked diuresis and plasma volume depletion that makes maintenance of normal blood pressure highly dependent on function of the renin-angiotensin-aldosteronesystem.” left out, “Compound-induced changes in blood pressure are compared to concurrent vehicle control blood pressures in order to detect drug effect.” left out
Interpretation: Prior to salt depletion, normotensive rats typically show a plasma renin activity (PRA), measured by Radioimmuno Assay (RIA) of Angiotensin I (as ng Angiotensin I/mL plasma/hour) and yields a RIA of 0.7. […]

Angiotensin Receptor [3] = assay: Screening Potential Angiotensin Receptor Antagonists in Salt-Depleted Normotensive Rats (blood pressure after oral dosing); assay type: in vivo, Sprague-Dawley rats
[4] = molecular target: T1, angiotensin II-induced vasoconstriction (Oryctolagus cuniculus, UniProt P34976); assay: Inhibition of Angiotensin II Dose-Response in Rabbit Thoracic Aorta; design: from tissue; host or cells: thoracic aorta rings of New Zealand white rabbits; species or system New Zealand white rabbits; conditions: for inhibition at 10 µM: read-out: % Inh @ 10^-5 M; for EC90: contraction, 95% C.L. in brackets
T1 sequence (P34976 1-359): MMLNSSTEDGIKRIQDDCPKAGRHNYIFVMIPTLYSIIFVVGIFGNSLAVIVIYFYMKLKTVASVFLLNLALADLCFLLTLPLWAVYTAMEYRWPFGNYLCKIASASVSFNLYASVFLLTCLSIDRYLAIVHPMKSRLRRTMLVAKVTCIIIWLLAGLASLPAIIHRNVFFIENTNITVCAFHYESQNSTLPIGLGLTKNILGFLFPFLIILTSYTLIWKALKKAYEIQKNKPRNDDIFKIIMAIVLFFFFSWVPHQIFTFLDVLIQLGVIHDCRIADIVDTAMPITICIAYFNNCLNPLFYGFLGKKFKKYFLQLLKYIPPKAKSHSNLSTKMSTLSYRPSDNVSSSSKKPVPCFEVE
Procedure: VII. Cellular and Biochemical pharmacology of DuP 753, an orally active antihypertensive agent. J. Pharmacol. Exp. Ther., 252, 726 (1990)]
Test compounds are diluted in dimethylsulfoxide vehicle such that a 50 μL addition to the tissue bath produces a final bath concentration of 1×10^-5 M compound in Krebs-bicarbonate buffer (baths contain 15 mL Krebs-bicarbonate buffer).
Procedure: 1.8 to 2.3 kg New Zealand white rabbits are sacrificed with an intravenous sodium pentobarbital overdose and the thoracic aorta gently dissected free from the aortic root to the level of the diaphragm, into ice cold Krebs bicarbonate buffer. The aorta is gently freed of clots and adventitia and cleanly cut into 5 mm segments. Each ring is suspended from a Gould isotonic force transducer in a tissue bath containing 15 mL oxygenated Krebs bicarbonate buffer regulated at 37° C. Initial tenison is adjusted to 4.0 g and equilibrated over three 20-minute wash periods with fresh Krebs-bicarbonate buffer to achieve a baseline tension of 3.0 g. […] […] […] In addition, since the test compounds are dissolved in DMSO, DMSO alone is tested in two rings as a vehicle control in each screening experiment.

[5] = molecular target: T1, angiotensin II-induced vasoconstriction; assay: Angiotensin II Antagonist Dose-Response in Rabbit Thoracic Aorta (Schild plot); design: from tissue; host or cells: thoracic aorta rings of New Zealand white rabbits; species or system New Zealand white rabbits; conditions: for Kb: read-out: pA2 (converted)
Excerpt: Angiotensin II Antagonist Dose-Response in Rabbit Thoracic Aorta Purpose: […] [Chiu, […]., Price, W. A., Wong, […]., Duncia, […]., Yoo, S. E., Johnson, A. L., and […].: Nonpeptide angiotensin II receptor antagonists. VII. Cellular and Biochemical pharmacology of […], an orally active antihypertensive agent. J. Pharmacol. Exp. Ther., 252,726 (1990)]. Solution Preparation: […] For each test an aliquot is freshly thawed and serially diluted with Krebs bicarbonate buffer to provide stock solutions of angiotensin II in buffer for addition to the tissue baths. […] Procedure: 1.8 to 2.3 kg New Zealand white rabbits are sacrificed with an intravenous sodium pentobarbital overdose and the thoracic aorta gently dissected free from the aortic root to the level of the diaphragm, into ice cold Krebs bicarbonate buffer. The aorta is gently freed of clots and adventitia and cleanly cut into 5 mm segments. Each ring is suspended from a Gould isotonic force transducer in a tissue bath containing 15 mL oxygenated Krebs bicarbonate buffer regulated at 37° C. […] The test compound is then given to separate rings at different antagonist concentrations (n=2 rings/test concentration) in order to asses antagonist dose-response. The angiotensin II cumulative dose-response is then repeated in the presence of the test compound. Analysis: Angiotensin II vasoconstrictor tension in grams is expressed as a percent of maximal contraction for the before and after test compound angiotensin II dose-responses. […] See results in Table 2.

Molecule	inhibition at 10 µM [4]	Kb [5]	Antihypertensive Activity (p.o.): active @ dose (Angiotensin Receptor [1])	other results
CCCCc1nc(Cl)c(CO)n1Cc1ccc(-c2ccccc2-c2nn[nH]n2)cc1 [DuP-753]				blood pressure decrease (mean arterial pressure, MAP) (Angiotensin Receptor [1]; salt-depleted animals, typical response): about 35 mmHg; plasma renin activity (PRA) after treatment [2]: about 41.4 ng Angiotensin I/mL plasma/hour; blood pressure response in normotensive rats that have not been salt-depleted (Angiotensin Receptor [3]): does not change
CCOC(=O)C=C1N(Cc2ccc(-c3ccccc3-c3nnn[nH]3)cc2)C(=O)CC12CCCCC2 [ac, 5-Carbethoxymethyliden-4-spirocyclohexyl-1-[4-(2-tetrazolophenyl)benzyl]pyrrolidin-2-one Pyridinium Salt,1.2 Hydrate]	100%		30 mpk	pA2 ([5]; Schild plot vs angiotensin II, rabbit thoracic aorta rings): 7.93
CCOC(=O)C=C1N(Cc2ccc(-c3ccccc3-c3nnn[nH]3)cc2)C(=O)CC12CCCCCC2 [ad, 5-Carbethoxymethylidine-4-spirocycloheptyl-1-[4-(2-tetrazolophenyl)benzyl]pyrrolidin-2-one Pyridinium Salt, 1.3 Hydrate]	100%	4.37 nM	30 mpk	
CCOC(=O)C=C1CC(C)(CC)CC(=O)N1Cc1ccc(-c2ccccc2-c2nnn[nH]2)cc1 (stereo not drawn) [ae, 6-Carbethoxymethyliden-4-ethyl-4-methyl-1-[4-(2-tetrazolophenyl)benzyl]piperidine-2-one Pyridinium Salt, 1.25 Hydrate]	100%	1.07 nM	10 mpk	
CCOC(=O)C=C1N(Cc2ccc(-c3ccccc3-c3nnn[nH]3)cc2)C(=O)CC12CCCC2 [af, 5-Carbethoxymethylidine-4-spirocyclopentyl-1-[4-(2-tetrazolophenyl)benzyl]pyrrolidin-5-one Pyridinium Salt, 1.4 Hydrate]	100%	3.63 nM	30 mpk	
CCOC(=O)C=C1C2C3CCCC(CC3)C2C(=O)N1Cc1ccc(-c2ccccc2-c2nnn[nH]2)cc1 (stereo not drawn) [ag, 3-Carbethoxymethyliden-2-[4-(2-tetrazolophenyl)benzyl]-4,7-endopropylen-1,3,4,5,6,7-hexahydro-1-oxoisoindole Dihydrate]	100%		30 mpk	
CCOC(=O)C=C1C2C3C=CC(CCC3)C2C(=O)N1Cc1ccc(-c2ccccc2-c2nnn[nH]2)cc1 (stereo not drawn) [ah, 3-Carbethoxymethyliden-2-[4-(2-tetrazolophenyl)benzyl]-4,7-endopropylen-1,3,4,7-tetrahydro-1-oxoisoindole Pyridinium Salt, 1.75 Hydrate]	100%	14.1 nM	> 30 mpk	
CCOC(=O)C=C1C2C3C=CC(C3)C2C(=O)N1Cc1ccc(-c2ccccc2C(=O)OC)cc1 (stereo not drawn) [m, 3-Carbethoxymethyliden-2-[4-(2-carbomethoxyphenyl)benzyl]-4,7-endomethylen-1,3,4,7-tetrahydro-1-oxoisoindole]	0%			
CCOC(=O)C=C1C2C3C=CC(CC3)C2C(=O)N1Cc1ccc(-c2ccccc2C#N)cc1 (stereo not drawn) [p, 3-Carbethoxymethyliden-2-[4-(2-cyanophenyl)benzyl]-4,7-endoethylen-1,3,4,7-tetrahydro-1-oxoisoindole]	3%			
angiotensin II [reference compound]				EC90 ([4]; read-out: Mean ED90 for angiotensin II after DMSO vehicle treatment, after DMSO vehicle): 5.88 nM; EC90 ([4]; read-out: Mean ED90 for angiotensin II before DMSO vehicle treatment, before DMSO vehicle): 4.44 nM

More lines, main results first:

inhibition at 10 µM [4]	Kb [5]	Molecule	Antihypertensive Activity (p.o.): active @ dose (Angiotensin Receptor [1])	other results
100%	39.8 nM	CCOC(=O)C=C1CC(C)(C)CC(=O)N1Cc1ccc(-c2ccccc2-c2nnn[nH]2)cc1 [s, 6-Carbethoxymethyliden-4,4-dimethyl-1-[4-(2-tetrazolophenyl)benzyl]piperidin-2-one Pyridinium salt]	30 mpk	
100%	14.1 nM	CCOC(=O)C=C1CC2(CCCC2)CC(=O)N1Cc1ccc(-c2ccccc2-c2nnn[nH]2)cc1 [t, 6-Carbethoxymethyliden-4-spirocyclopentyl-1-[4-(2-tetrazolophenyl)benzyl]piperidin-2-one Pyridinium Salt]	30 mpk	
99%	6.92 nM	CCOC(=O)C=C1C2C3C=CC(CC3)C2C(=O)N1Cc1ccc(-c2ccccc2-c2nnn[nH]2)cc1 (stereo not drawn) [u, 3-Carbethoxymethyliden-2-[4-(2-tetrazolophenyl)benzyl]-4,7-endoethylen-1,3,4,7-tetrahydro-1-oxoisoindole]	30 mpk	
100%	4.47 nM	CCOC(=O)C=C1C2C3C=CC(C3)C2C(=O)N1Cc1ccc(-c2ccccc2-c2nnn[nH]2)cc1 (stereo not drawn) [v, 3-Carbethoxymethyliden-2-[4-(2-tetrazolophenyl)benzyl]-4,7-endomethylen-1,3,4,7-tetrahydro-1-oxoisoindole Pyridinium Salt]		
0%		CCOC(=O)C=C1C2C3CCC(C3)C2C(=O)N1Cc1ccc(-c2ccccc2C(=O)OC)cc1 (stereo not drawn) [y, 3-Carbethoxymethyliden-2-[4-(2-carbomethoxyphenyl)benzyl]-4,7-endomethylen-1,3,4,5,6,7-hexahydro-1-oxoisoindole]		
100%	1.05 nM	CCOC(=O)C=C1C2C3CCC(C3)C2C(=O)N1Cc1ccc(-c2ccccc2-c2nnn[nH]2)cc1 (stereo not drawn) [z, 3-Carbethoxymethyliden-2-[4-2-(tetrazolophenyl)benzyl]-4,7-endomethylen-1,3,4,5,6,7-hexahydro-1-oxoisoindole]	30 mpk	
